ChEMBL document CHEMBL1201861, “Genomics of Drug Sensitity in Cancer screening data, Wellcome Trust Sanger Institute”

Assays:
GP5d = assay: cells; assay type: functional, cell-based; details: Homo sapiens
Description: SANGER: Inhibition of human GP5d cell growth in a cell viability assay.

IM-9 = assay: SANGER: Inhibition of human IM-9 cell growth in a cell viability assay.; assay type: functional, cell-based; details: Homo sapiens, IM-9
HO-1-N-1 = assay: cells; assay type: functional, cell-based; details: Homo sapiens
Description: SANGER: Inhibition of human HO-1-N-1 cell growth in a cell viability assay.

OVCAR-5 = assay: cells; assay type: functional, cell-based; details: Homo sapiens
Description: SANGER: Inhibition of human OVCAR-5 cell growth in a cell viability assay.

DU-145 = assay: cells; assay type: functional, cell-based; details: Homo sapiens
Description: SANGER: Inhibition of human DU-145 cell growth in a cell viability assay.

HOP-92 = assay: cells; assay type: functional, cell-based; details: Homo sapiens
Description: SANGER: Inhibition of human HOP-92 cell growth in a cell viability assay.

VM-CUB-1 = assay: cells; assay type: functional, cell-based; details: Homo sapiens
Description: SANGER: Inhibition of human VM-CUB-1 cell growth in a cell viability assay.

NCI-H630 = assay: cells; assay type: functional, cell-based; details: Homo sapiens
Description: SANGER: Inhibition of human NCI-H630 cell growth in a cell viability assay.

HuP-T3 = assay: cells; assay type: functional, cell-based; details: Homo sapiens
Description: SANGER: Inhibition of human HuP-T3 cell growth in a cell viability assay.

CAL-54 = assay: cells; assay type: functional, cell-based; details: Homo sapiens
Description: SANGER: Inhibition of human CAL-54 cell growth in a cell viability assay.

J82 = assay: cells; assay type: functional, cell-based; details: Homo sapiens
Description: SANGER: Inhibition of human J82 cell growth in a cell viability assay.

T47D = assay: cells; assay type: functional, cell-based; details: Homo sapiens
Description: SANGER: Inhibition of human T47D cell growth in a cell viability assay.

MKN-28 = assay: cells; assay type: functional, cell-based; details: Homo sapiens
Description: SANGER: Inhibition of human MKN28 cell growth in a cell viability assay.

SF-295 = assay: cells; assay type: functional, cell-based; details: Homo sapiens
Description: SANGER: Inhibition of human SF295 cell growth in a cell viability assay.

OPM-2 = assay: cells; assay type: functional, cell-based, Homo sapiens; details: Homo sapiens, OPM-2
Description: SANGER: Inhibition of human OPM-2 cell growth in a cell viability assay.

NCI-H2141 = assay: cells; assay type: functional, cell-based, Homo sapiens; details: Homo sapiens, NCI-H2141
Description: SANGER: Inhibition of human NCI-H2141 cell growth in a cell viability assay.

NB14 = assay: cells; assay type: functional, cell-based, Homo sapiens; details: Homo sapiens, NB14
Description: SANGER: Inhibition of human NB14 cell growth in a cell viability assay.

NCI-H719 = assay: cells; assay type: functional, cell-based, Homo sapiens; details: Homo sapiens, NCI-H719
Description: SANGER: Inhibition of human NCI-H719 cell growth in a cell viability assay.

SNU-16 = assay: cells; assay type: functional, cell-based, Homo sapiens; details: Homo sapiens, SNU-16
Description: SANGER: Inhibition of human NCI-SNU-16 cell growth in a cell viability assay.

NCI-H187 = assay: cells; assay type: functional, cell-based, Homo sapiens; details: Homo sapiens, NCI-H187
Description: SANGER: Inhibition of human NCI-H187 cell growth in a cell viability assay.

CPC-N = assay: cells; assay type: functional, cell-based, Homo sapiens; details: Homo sapiens, CPC-N
Description: SANGER: Inhibition of human CPC-N cell growth in a cell viability assay.

HuTu80 = assay: cells; assay type: functional, cell-based, Homo sapiens, HUTU-80; details: Homo sapiens, HuTu80
Description: SANGER: Inhibition of human HUTU-80 cell growth in a cell viability assay.

NCI-H1436 = assay: cells; assay type: functional, cell-based, Homo sapiens; details: Homo sapiens, NCI-H1436
Description: SANGER: Inhibition of human NCI-H1436 cell growth in a cell viability assay.

NB7 = assay: cells; assay type: functional, cell-based, Homo sapiens; details: Homo sapiens, NB7
Description: SANGER: Inhibition of human NB7 cell growth in a cell viability assay.

L-540 = assay: cells; assay type: functional, cell-based, Homo sapiens; details: Homo sapiens, L-540
Description: SANGER: Inhibition of human L-540 cell growth in a cell viability assay.

SUP-T1 = assay: cells; assay type: functional, cell-based, Homo sapiens; details: Homo sapiens, SUP-T1
Description: SANGER: Inhibition of human SUP-T1 cell growth in a cell viability assay.

IST-SL2 = assay: cells; assay type: functional, cell-based, Homo sapiens; details: Homo sapiens, IST-SL2
Description: SANGER: Inhibition of human IST-SL2 cell growth in a cell viability assay.

LOUCY = assay: cells; assay type: functional, cell-based, Homo sapiens; details: Homo sapiens, LOUCY
Description: SANGER: Inhibition of human LOUCY cell growth in a cell viability assay.

DMS-79 = assay: cells; assay type: functional, cell-based, Homo sapiens; details: Homo sapiens, DMS-79
Description: SANGER: Inhibition of human DMS-79 cell growth in a cell viability assay.

CP66-MEL = assay: cells; assay type: functional, cell-based; details: Homo sapiens
Description: SANGER: Inhibition of human CP66-MEL cell growth in a cell viability assay.

SW780 = assay: cells; assay type: functional, cell-based; details: Homo sapiens
Description: SANGER: Inhibition of human SW780 cell growth in a cell viability assay.

647-V = assay: cells; assay type: functional, cell-based; details: Homo sapiens
Description: SANGER: Inhibition of human 647-V cell growth in a cell viability assay.

CaR-1 = assay: cells; assay type: functional, cell-based; details: Homo sapiens
Description: SANGER: Inhibition of human CaR-1 cell growth in a cell viability assay.

A-375 = assay: cells; assay type: functional, cell-based; details: Homo sapiens
Description: SANGER: Inhibition of human A375 cell growth in a cell viability assay.

LK-2 = assay: cells; assay type: functional, cell-based; details: Homo sapiens
Description: SANGER: Inhibition of human LK-2 cell growth in a cell viability assay.

RPMI-7951 = assay: cells; assay type: functional, cell-based; details: Homo sapiens
Description: SANGER: Inhibition of human RPMI-7951 cell growth in a cell viability assay.

MFE-280 = assay: cells; assay type: functional, cell-based; details: Homo sapiens
Description: SANGER: Inhibition of human MFE-280 cell growth in a cell viability assay.

NCI-H520 = assay: cells; assay type: functional, cell-based; details: Homo sapiens
Description: SANGER: Inhibition of human NCI-H520 cell growth in a cell viability assay.

RCM-1 = assay: cells; assay type: functional, cell-based; details: Homo sapiens
Description: SANGER: Inhibition of human RCM-1 cell growth in a cell viability assay.

NCI-H650 = assay: cells; assay type: functional, cell-based; details: Homo sapiens
Description: SANGER: Inhibition of human NCI-H650 cell growth in a cell viability assay.

HCC 2998 = assay: cells; assay type: functional, cell-based; details: Homo sapiens
Description: SANGER: Inhibition of human HCC2998 cell growth in a cell viability assay.

SW-620 = assay: cells; assay type: functional, cell-based; details: Homo sapiens
Description: SANGER: Inhibition of human SW620 cell growth in a cell viability assay.

SW837 = assay: cells; assay type: functional, cell-based; details: Homo sapiens
Description: SANGER: Inhibition of human SW837 cell growth in a cell viability assay.

HCC1569 = assay: cells; assay type: functional, cell-based; details: Homo sapiens
Description: SANGER: Inhibition of human HCC1569 cell growth in a cell viability assay.

VMRC-RCZ = assay: cells; assay type: functional, cell-based; details: Homo sapiens
Description: SANGER: Inhibition of human VMRC-RCZ cell growth in a cell viability assay.

NCI-H441 = assay: cells; assay type: functional, cell-based; details: Homo sapiens
Description: SANGER: Inhibition of human NCI-H441 cell growth in a cell viability assay.

KYSE-520 cell line = assay: cells; assay type: functional, cell-based; details: Homo sapiens
Description: SANGER: Inhibition of human KYSE-520 cell growth in a cell viability assay.

HCC70 = assay: cells; assay type: functional, cell-based; details: Homo sapiens
Description: SANGER: Inhibition of human HCC70 cell growth in a cell viability assay.

CAL-51 = assay: cells; assay type: functional, cell-based; details: Homo sapiens
Description: SANGER: Inhibition of human CAL-51 cell growth in a cell viability assay.

C32 = assay: cells; assay type: functional, cell-based; details: Homo sapiens
Description: SANGER: Inhibition of human C32 cell growth in a cell viability assay.

SAS = assay: cells; assay type: functional, cell-based; details: Homo sapiens
Description: SANGER: Inhibition of human SAS cell growth in a cell viability assay.

PANC-08-13 = assay: cells; assay type: functional, cell-based; details: Homo sapiens
Description: SANGER: Inhibition of human PANC-08-13 cell growth in a cell viability assay.

CAL-72 = assay: cells; assay type: functional, cell-based; details: Homo sapiens
Description: SANGER: Inhibition of human CAL-72 cell growth in a cell viability assay.

OE33 = assay: cells; assay type: functional, cell-based; details: Homo sapiens
Description: SANGER: Inhibition of human OE33 cell growth in a cell viability assay.

BHY = assay: cells; assay type: functional, cell-based; details: Homo sapiens
Description: SANGER: Inhibition of human BHY cell growth in a cell viability assay.

NCI-H292 = assay: cells; assay type: functional, cell-based; details: Homo sapiens
Description: SANGER: Inhibition of human NCI-H292 cell growth in a cell viability assay.

Daoy = assay: cells; assay type: functional, cell-based; details: Homo sapiens
Description: SANGER: Inhibition of human Daoy cell growth in a cell viability assay.

TYK-nu = assay: cells; assay type: functional, cell-based; details: Homo sapiens
Description: SANGER: Inhibition of human TYK-nu cell growth in a cell viability assay.

## CO[C@@H]1[C@H](N(C)C(=O)c2ccccc2)C[C@H]2O[C@]1(C)n1c3ccccc3c3c4c(c5c6ccccc6n2c5c31)C(=O)NC4 [MIDOSTAURIN]
GP5d
  IC50: > 512 nM
IM-9
  IC50: > 512 nM
HO-1-N-1
  IC50: > 512 nM
OVCAR-5
  IC50: > 512 nM
DU-145
  IC50: 319 nM
HOP-92
  IC50: > 512 nM
VM-CUB-1
  IC50: > 512 nM
NCI-H630
  IC50: > 512 nM
HuP-T3
  IC50: > 512 nM
CAL-54
  IC50: 209 nM
J82
  IC50: > 512 nM
T47D
  IC50: > 512 nM
MKN-28
  IC50: > 512 nM
SF-295
  IC50: 273 nM

## COc1ccc(N(C(=O)Oc2c(C)cccc2C)c2ccnc(Nc3ccc(N4CCN(C)CC4)cc3)n2)c(OC)c1
OPM-2
  IC50: > 5120 nM
NCI-H2141
  IC50: > 5120 nM
IM-9
  IC50: > 5120 nM
NB14
  IC50: > 5120 nM
NCI-H719
  IC50: > 5120 nM
SNU-16
  IC50: 15.7 nM
NCI-H187
  IC50: > 5120 nM
CPC-N
  IC50: > 5120 nM
HuTu80
  IC50: 175 nM
NCI-H1436
  IC50: > 5120 nM
NB7
  IC50: > 5120 nM
L-540
  IC50: > 5120 nM
SUP-T1
  IC50: > 5120 nM
IST-SL2
  IC50: 1470 nM
LOUCY
  IC50: > 5120 nM
DMS-79
  IC50: > 5120 nM
CP66-MEL
  IC50: > 5120 nM

## O=C1NC(=O)c2c1c(-c1ccccc1Cl)cc1[nH]c3ccc(O)cc3c21
SW780
  IC50: > 2000 nM
647-V
  IC50: > 2000 nM
CaR-1
  IC50: > 2000 nM
A-375
  IC50: 1520 nM
LK-2
  IC50: > 2000 nM
GP5d
  IC50: > 2000 nM
RPMI-7951
  IC50: > 2000 nM
HO-1-N-1
  IC50: 1390 nM
NB14
  IC50: > 2000 nM
MFE-280
  IC50: > 2000 nM
NCI-H520
  IC50: > 2000 nM
RCM-1
  IC50: > 2000 nM
NCI-H650
  IC50: > 2000 nM
HCC 2998
  IC50: > 2000 nM
SW-620
  IC50: > 2000 nM
DU-145
  IC50: 161 nM
SW837
  IC50: > 2000 nM
HOP-92
  IC50: 1000 nM
HCC1569
  IC50: > 2000 nM
VM-CUB-1
  IC50: > 2000 nM
NCI-H630
  IC50: 1930 nM
NB7
  IC50: > 2000 nM
HuP-T3
  IC50: > 2000 nM
VMRC-RCZ
  IC50: > 2000 nM
NCI-H441
  IC50: > 2000 nM
KYSE-520 cell line
  IC50: > 2000 nM
HCC70
  IC50: > 2000 nM
CAL-51
  IC50: > 2000 nM
CAL-54
  IC50: > 2000 nM
C32
  IC50: 1530 nM
J82
  IC50: > 2000 nM
SAS
  IC50: > 2000 nM
T47D
  IC50: > 2000 nM
PANC-08-13
  IC50: > 2000 nM
CAL-72
  IC50: 1820 nM
OE33
  IC50: > 2000 nM
BHY
  IC50: 1150 nM
MKN-28
  IC50: > 2000 nM
NCI-H292
  IC50: 454 nM
Daoy
  IC50: > 2000 nM

## O=C(NCCCNc1nc(Nc2cccc(NC(=O)N3CCCC3)c2)ncc1I)c1cccs1 [BX-795]
SW780
  IC50: 3260 nM
647-V
  IC50: > 5000 nM
CaR-1
  IC50: > 5000 nM
A-375
  IC50: 1310 nM
LK-2
  IC50: > 5000 nM
GP5d
  IC50: > 5000 nM
RPMI-7951
  IC50: 3190 nM
HO-1-N-1
  IC50: 1970 nM
NB14
  IC50: 1060 nM
OVCAR-5
  IC50: 2280 nM
MFE-280
  IC50: 2570 nM
NCI-H520
  IC50: > 5000 nM
RCM-1
  IC50: > 5000 nM
NCI-H650
  IC50: 3400 nM
HCC 2998
  IC50: > 5000 nM
SW-620
  IC50: > 5000 nM
DU-145
  IC50: > 5000 nM
TYK-nu
  IC50: 2930 nM
SW837
  IC50: > 5000 nM
HOP-92
  IC50: 1270 nM
HCC1569
  IC50: > 5000 nM
VM-CUB-1
  IC50: 2040 nM
NCI-H630
  IC50: > 5000 nM
NB7
  IC50: > 5000 nM
HuP-T3
  IC50: > 5000 nM
VMRC-RCZ
  IC50: 2770 nM
NCI-H441
  IC50: > 5000 nM
KYSE-520 cell line
  IC50: > 5000 nM
HCC70
  IC50: > 5000 nM
CAL-51
  IC50: 1220 nM
CAL-54
  IC50: > 5000 nM
C32
  IC50: 1760 nM
J82
  IC50: > 5000 nM
SAS
  IC50: > 5000 nM
T47D
  IC50: > 5000 nM
PANC-08-13
  IC50: > 5000 nM
CAL-72
  IC50: 4220 nM
OE33
  IC50: > 5000 nM
BHY
  IC50: > 5000 nM
MKN-28
  IC50: > 5000 nM
SF-295
  IC50: 4180 nM
NCI-H292
  IC50: 2580 nM
Daoy
  IC50: > 5000 nM
